Measurements: a melting point compilation (Tetko et al.; mined from patent text by program, amines drawn as free bases though some values may be those of a salt)

Row | SMILES | melting point
1 | O=[N+]([O-])C=C1CCCN1C1=CC(CF)(CF)Oc2ccc(C(F)(F)C(F)(F)F)cc21 | 195 to 197 °C
2 | CC(=O)OCCCS(=O)(=O)c1ccc(S(N)(=O)=O)s1 | 103 to 104 °C
3 | CC(=O)OC1C(Oc2cc(C)cc(O)c2C(=O)CCc2ccc3occc3c2)OC(CO)C(O)C1OC(C)=O (stereo not drawn) | 151 to 153 °C
4 | CCCCCCCCS(=O)Cc1c(C)c(O)c(C)c(CS(=O)CCCCCCCC)c1C (stereo not drawn) | 175 °C
5 | CCCC1(C)CC(=O)NC(=O)C1 | 110 to 112 °C
6 | CCOC(=O)C=Cc1c(-c2ccccc2)nn2ccccc12 | 54 to 55 °C
7 | CCOC(=O)c1c(-c2ccc(OC)c(OC)c2)c2cc(OC)c(OC)cc2[nH]c1=O | 273 to 276 °C
8 | Cc1cc(CNC(=O)c2cc(-c3ccc(C(C)(C)C)cc3)nn2CCN2CCOCC2)ccc1OC(C)(C)C(=O)O | 140 °C
9 | CCOC(=O)C(=O)Nc1cc(O)ccc1O | > 300 °C
10 | O=C(O)CC1CCCc2c1n(Cc1ccc(Cl)cc1Cl)c1c(F)cc(F)cc21 (stereo not drawn) | 160 to 161 °C
11 | C[Si]1(CC(CN)CC(=O)O)CCCC1 (stereo not drawn) | 133 to 135 °C
12 | CCOC(=O)N1CCN(c2ccc(Cl)nn2)CC1 | 124 °C
13 | Cc1c([N+](=O)[O-])cnc(Oc2ccc(Cl)c(C(F)(F)F)c2)c1Br | 73 to 74 °C
14 | CC(=O)c1cc(CC(C)O)c(OCCCCC#N)cc1O (stereo not drawn) | 86 to 88 °C
15 | O=C(CCC1CCCC1)Nc1ccc2ncn3c(=O)c(C(=O)O)cnc3c2c1 | 279 to 283 °C
16 | CC(CC(=O)Nc1c(Cl)ccc2nc(CCCNCCCO)ccc12)c1ccccc1 (stereo not drawn) | 118 to 120 °C
17 | COC(C)c1c(C(C)C)nc(C(C)C)c(CO)c1-c1ccc(F)cc1 (stereo not drawn) | 151 to 153 °C
18 | CC[Si](CC)(Cc1ccc(N(c2ccccc2)c2ccccc2)cc1)Cc1ccc(N(c2ccccc2)c2ccccc2)cc1 | 115 to 117 °C
19 | CC(C)N(C)C(=O)NS(=O)(=O)c1cc(-n2c(=O)cc(C(F)(F)F)n(C)c2=O)c(F)cc1Cl | 145 °C
20 | CCc1ccc(Cn2cc(-c3cn(C4CC(O)C(CO)O4)c(=O)[nH]c3=O)nn2)cc1 (stereo not drawn) | 201 °C
21 | CNc1c(F)cc2c(=O)c(C(=O)O)cn(-c3ccc(F)c(O)c3)c2c1C | > 280 °C
22 | CN(C)C(=O)Cc1ccc(CC(=O)O)cc1 | 163 to 165 °C

Row | SMILES | melting point
23 | CN1CC(CCCl)Oc2ncc(Cl)cc2C1=O (stereo not drawn) | 78 to 79 °C
24 | COC(=O)C(C(=O)OC)c1ccc(Br)cc1[N+](=O)[O-] | 86 to 88 °C
25 | O=C(O)C1CCc2cc(C3CCCCCC3)c(Cl)cc21 (stereo not drawn) | 138 to 140 °C
26 | C1=C(c2c[nH]c3ccccc23)CCN(CC2COc3ccc4ncncc4c3O2)C1 (stereo not drawn) | 204 to 207 °C
27 | O=c1ccc(-c2ccc(OC(F)F)c(OCC3CC3)c2)n[nH]1 | 142 °C
28 | CC(C)(C)c1cccc(S(=O)(=O)Nc2cc(C(F)(F)F)ccc2I)c1 | 134 °C
29 | Cc1cc(C2(C(F)(F)F)CN=C(c3ccc(Cl)cc3)S2)ccc1NC(=O)c1cccc(I)c1C(=O)NC(C)C (stereo not drawn) | 121 to 123 °C
30 | CCCN(CCC)C(=O)CCn1c(-c2ccc(Cl)cc2)nc2cccnc21 | 104 to 106 °C
31 | CCOC(=O)CN(C)C=C(Cl)C#N | 57 °C
32 | CSC1CC(=O)N1CC(=O)CS(=O)(=O)c1ccccc1 (stereo not drawn) | 82 to 84 °C
33 | O=C1OC(COc2ccc(CCCO)cc2)CN1c1ccc(Cl)cc1 (stereo not drawn) | 119 to 120 °C
34 | Cc1c(N2C(=O)[C@H]3[C@@H](O)CCN3C2=O)ccc(C#N)c1Cl | 237 to 238 °C
35 | CC(C)(CO)Oc1ccccc1 | 91 to 92 °C
36 | CC(C)n1c(=O)[nH]c2ncc(-c3ccc(O)cc3)nc21 | 323 to 324 °C
37 | CCCCc1cc2cc(OCC(=O)OCC)c(Cl)c(Cl)c2s1 | 72 to 73 °C
38 | Cc1nc(-c2c(F)cccc2Cl)nn1-c1ccc(COc2ncc(C(F)(F)F)cc2Cl)cc1 | 96 to 97 °C
39 | CCOC(=O)c1cc(C=Cc2ccc(O)c(OC)c2)n[nH]1 | 99 to 101 °C
40 | CCCc1c(OCc2ccc(C(=O)O)cc2OC)ccc(C(C)=O)c1O | 248 to 250 °C
41 | CCN(CC)C(=O)n1cc(F)c(S(=O)(=O)c2c(C)cc(C)cc2C)n1 | 109 to 111 °C
42 | COc1cc([N+](=O)[O-])c(NCCO)c([N+](=O)[O-])c1 | 104 °C
43 | COC(=O)C1CCC2C3CCC4CC(O)CCC4(C)C3C(NC(=O)OCC(Cl)(Cl)Cl)CC12C (stereo not drawn) | 140 to 143 °C
44 | CSc1ccc2ncccc2c1N | 88.5 to 90.5 °C

Row | SMILES | melting point
45 | Nc1ccc(C(Cc2ccccc2)C(=O)O)cc1 (stereo not drawn) | 196 to 198 °C
46 | CC(C)OP(=O)(CCCCC1(C(=O)NCC(F)(F)F)c2ccccc2-c2ccccc21)OC(C)C | 91 to 94 °C
47 | CCCN(CCC)C(=O)CNc1nc(-c2ccccc2)ncc1CO | 167 to 168 °C
48 | CCC(CC)Sc1cc(S(N)(=O)=O)c(N)cc1Cl | 118 to 120 °C
49 | CCCCn1c(=O)c2nn(S(=O)(=O)c3ccc(C(C)(C)C)cc3)cc2n(CCCC)c1=O | 158 to 159 °C
50 | O=c1[nH]c2c(Cl)c(Cl)ccc2s1 | 229 °C
51 | O=C(Sc1ccc(O)cc1)c1ccc(CSc2ccc(O)cc2)cc1 | 202 to 209 °C
52 | CCOC(=O)/C=C\n1c(=O)n2nc(C(=O)OCC)cc2c2ccc(Cl)cc21 | 215 to 217 °C
53 | COCCOC(=O)C1=C(C)NC(C)=C(C(=O)OCC(F)(F)F)C1c1cccc([N+](=O)[O-])c1 (stereo not drawn) | 169 °C
54 | COC(=O)CCc1ccc(C(=O)CCl)cc1 | 90 °C
55 | CCC(C)C(Cl)C(=O)Oc1ccc(C(=O)O)cc1 (stereo not drawn) | 97 to 100 °C
56 | O=C(c1ccc(Cc2ccc(F)cc2)o1)c1occ(Br)c(=O)c1O | 191 to 192 °C
57 | COC12CC(COS(=O)(=O)c3ccc(C)cc3)CN(C)C1Cc1cn(C(C)(C)C)c3cccc2c13 (stereo not drawn) | 150 to 152 °C
58 | O=C(O)CCCOc1cccc(CCNC(=O)C2Cc3ccccc3N2S(=O)(=O)c2ccc(-c3cccc(C(F)(F)F)c3)cc2)c1 (stereo not drawn) | 70 °C
59 | O=C(O)C(Cl)=C(Cl)C(O)=NCCc1ccc([N+](=O)[O-])cc1 | 166 °C
60 | CN1C(=O)C(=O)c2cnccc21 | 140 to 142 °C
61 | CC(C)C(NC(=O)c1ccc(Cl)cc1)NC(=NC#N)Nc1cccnc1 (stereo not drawn) | 182 to 184 °C
62 | CC1(C)CC(=O)c2cc(O)ccc2O1 | 158 °C
63 | CC(C)(C)NC(=O)c1nc(Cl)c(Cl)[nH]1 | 218 °C
64 | CCCCCCCCCCCCCCCCSCC(CO)NC(=O)OC (stereo not drawn) | 55 to 56 °C
65 | CCCCCCc1c(C(=O)O)sc2ccsc12 | 111 to 112 °C

The next lines start with the values.

Row | melting point | SMILES
66 | 85 to 125 °C | CC1(C)CC(OC(=O)CCc2cc(-n3nc4ccc(S(=O)(=O)c5ccccc5)cc4n3)c(O)c(C(C)(C)C)c2)CC(C)(C)N1
67 | 156 to 159 °C | CCCn1nc(C(C)C)c(C(N)=O)c1Cc1ccc(-c2ccccc2-c2nnn[nH]2)cc1
68 | 250 to 252 °C | CC(C)n1nc(-c2sc(NC(=O)Cc3ccccc3)nc2-c2ccccc2)ccc1=O
69 | 100 to 101 °C | COC(=O)c1ccccc1-c1nc(COc2ccc(CO)cc2OC)c(C)o1
70 | 89 to 94 °C | COc1ccc2c(c1)C(=O)OC2=O
71 | 214 to 215 °C | O=C(O)C1Cc2cc3c(-c4ccccc4)noc3c(Cl)c2O1 (stereo not drawn)
72 | 150 to 151 °C | COc1ccc2c(c1)C(=O)c1c-2c(N2CCNCC2)nc2ccccc12
73 | > 250 °C | Cc1c(C=O)c2cc(Br)ccc2n1-c1ccc(O)cc1
74 | 110 °C | CCOC(=O)c1ccc(OCC2CN(c3cccnn3)CCO2)cc1 (stereo not drawn)
75 | 162 to 163 °C | Cc1ccc(CN2CCN(CCCOc3ccc4[nH]c(=O)cc(C)c4c3)CC2)cc1
76 | 211 to 213 °C | Oc1ccc(-c2c3ccccc3c(Br)c3sc4ccccc4c23)cc1
77 | 186 to 190 °C | Cn1cc(-c2ccccc2)c(=O)c(-c2ccc(-c3ccccc3)cc2)c1
78 | 224 to 228 °C | CNc1nc(NC(=O)NS(=O)(=O)c2ccccc2Cl)nc(OC)n1
79 | 60 to 61 °C | CCC(=O)Oc1ccc(-c2nn(C3CCCC3)c3c(F)cccc23)cc1
80 | 228 to 229 °C | CCCOc1ccccc1C=C1Oc2ccc(C(=O)O)cc2C1=O
81 | 177 to 181 °C | NS(=O)(=O)c1ccc(-c2cnn(-c3ccc(F)c(F)c3)c(=O)c2-c2ccc(F)cc2)cc1
82 | 133 to 138 °C | O=C(O)COc1cccc(CCn2ncc(-c3ccccc3)c2-c2ccccc2)c1

Row | melting point | SMILES
83 | 112 to 113 °C | COC(=O)COc1ccc(SCc2cc(-c3ccc(C(F)(F)F)cc3)on2)c2c1CCCO2
84 | 114 to 118 °C | Cn1nc(C(=O)O)cc1OCCCN1CCN(c2cccc3sccc23)CC1
85 | 138 to 141 °C | C=CCOC(=O)N1CCC[C@@H](OC)[C@@H]1CC(=O)Cn1cnc2cc(Cl)c(Oc3ccc(Cl)cc3)cc2c1=O (relative stereo)
86 | 237 °C | C[C@@H]1CN(c2ccc(-c3[nH]nc4c3C(=O)c3c(NC(=O)NN5CCOCC5)cccc3-4)cc2)C[C@H](C)N1
87 | 113 to 116 °C | Clc1ccc2c(NCCCN3CCCCC3)ccnc2c1
88 | 80 to 82 °C | COC(=O)C(=O)c1ccc(OC/C=C/c2ccccc2)cc1
89 | 128 °C | N#Cc1cccc(-c2ccc(OCC(CN3C(=O)CCC3=O)N(O)C=O)cc2)c1 (stereo not drawn)
90 | 148 to 150 °C | CC(=O)N1CCC(c2nn(-c3ccc(C(F)(F)F)cc3)c3ccccc23)CC1
91 | > 300 °C | O=C1OC(=O)c2c1c1c3ccccc3[nH]c1c1c2c2cccnc2n1C1OC(CO)C(O)C(O)C1O (stereo not drawn)
92 | 248 to 250 °C | Cc1c(CCc2ccccc2)c(=O)oc2cc(OCc3nnn[nH]3)cc(OCc3nnn[nH]3)c12
93 | 118 °C | COc1ccc2c(c1)c(C)c(CCCO)n2Cc1ccc(Cl)cc1
94 | 189 to 190 °C | Cc1ccc(-c2ccc3c(c2)C=C(C(=O)Nc2ccc(CNc4ccccn4)cc2)CCO3)cc1
95 | 69 to 71 °C | COc1ccc(N)c(CCc2cc(OC)ccc2N)c1
96 | 124 °C | Cc1cccc(-c2n[nH]cc2-c2ccc(F)c(-c3cnn(CCN4CCOCC4)c3)c2)n1
97 | 66 to 70 °C | O=C(CN1CCC(Cc2ccccc2)CC1)Nc1ccc(O)cc1
98 | 120 to 122 °C | O=C(O)c1cc(OCc2ccccc2)ccc1OC1CCOC1=O (stereo not drawn)
